Measured values published in patent US20230310813A1, “DIMERIC NAPHTHALIMIDE COATING” (ALUCENT BIOMEDICAL, INC., priority 2020, published 2023).
“And” between values parts separate entries of the source, which are not always exact repeats. Equal entries are not always repeated. “Also recorded” adds a separate entry of the source.

Experiments:
Assay type in all cases: physicochemical
[1] = 10-8-10 stability over 8 hours in solvent systems
Procedure: The purity of a composition was analyzed by UPLC or HPLC.
(§1) The non-limiting exemplary and comparative solvent systems listed in Table 1 were prepared by combining the components of the solvent system at the indicated concentrations. The resulting mixture was then mixed at room temperature until a colorless, clear mixture was obtained. Compound of Formula (I) was then added in the indicated amount and the resulting mixture was mixed at room temperature until a yellow/orange translucent mixture was obtained.

[2] = Solubility of Compound of Formula (I) in solvent systems
Procedure: as §1
(§2) The solubility and stability of solvent systems were determined.

[3] = Storage stability in solvent systems
Procedure: as §2

[4] = Stability of coated balloon coating after sterilization (UPLC/HPLC)
Procedure: A solvent system was prepared by combining ethanol and water and acetic acid in a volume ratio of 89.5:10:0.5. The resulting mixture was then mixed at room temperature until a colorless, clear mixture was obtained. Compound of Formula (I) was then added in the indicated amount and the resulting mixture was mixed at room temperature until a yellow/orange translucent mixture was obtained. This mixture was applied to a 5 mm×60 mm balloon by a pipetting method. The coated balloon was then dried to evaporate the solvent. A coated balloon with a coating thickness of 10 μg/mm^2 was obtained. The calculated amount of Compound of Formula (I) on the coated balloon was 7759 μg.
Coated balloons from Example 3 were sterilized either by ethylene oxide sterilization (EO), gamma sterilization (Gamma) or electron beam sterilization (E-Beam). A group of control balloons was left untreated (Control). After sterilization, a sample of the coating on each of the coated balloons was removed and analyzed.

[5] = Stability of coated balloon in reduced oxygen and reduced moisture packaging; conditions: coated balloon stored in reduced oxygen and reduced moisture packaging
Procedure: Packaged coated balloons were prepared as follows. A coated balloon from Example 3 was placed in a foil pouch. The concentration of oxygen within the foil pouch was reduced by purging with nitrogen. A desiccant was added to the foil pouch before sealing the oxygen-purged foil pouch comprising the coated balloon and the desiccant.
At various time points after packaging, a coated balloon was taken out of its packaging. A sample of the coating on the coated balloon was removed and analyzed.

[6] = Room temperature stability of coated balloons; conditions: for amount of main impurity by LC / formation of impurities over time: 25° C., 60% RH, 0-24 months
Procedure: Angioplasty balloons coated with the Compound of Formula (I) (“10-8-10 compound”) were tested for their stability at 25° C. over a period of 0, 3, 6, and 12 months. The products described in Table 4 were placed in storage at 25° C.
Samples of each article were taken after 0, 3, 6, 12, 18 and 24 months of storage at 25° C., 60% RH.

[7] = coated balloon after electron beam sterilization (E-Beam)
[8] = coated balloon after ethylene oxide sterilization (EO)
[9] = coated balloon after gamma sterilization (Gamma)
[10] = coated balloon, Control (not sterilized)

NCCOCCOCCNc1ccc2c3c(cccc13)C(=O)N(CCOCCOCCN1C(=O)c3cccc4c(NCCOCCOCCN)ccc(c34)C1=O)C2=O [Compound of Formula (I), 2,2′-((ethane-1,2-diylbis(oxy))bis(ethane-2,1-diyl))bis(6-((2-(2-(2-aminoethoxy)ethoxy)ethyl)amino)-1H-benzo[de]isoquinoline-1,3(2H)-dione)]
10-8-10 stability over 8 hours ([1]; solvent system 89.5% Ethanol/10% water/0.5% acetic acid): ✓ | 10-8-10 stability over 8 hours ([1]; solvent system 99.5% Ethanol/0.5% acetic acid): ✓ | 10-8-10 stability over 8 hours ([1]; solvent system Ethanol/IPA): ✓ | degradation ([1]; solvent system comprising ethanol, water, and acetic acid): does not degrade appreciably | Solubility >2% w/w ([2]; Table 1, solvent system 89.5% Ethanol/10% water/0.5% acetic acid): ✓ | Solubility >2% w/w ([2]; Table 1, solvent system 99% Ethanol/1% Acetone): ✓ | Solubility >2% w/w ([2]; Table 1, solvent system Ethanol/Acetone/BHT): ✓ | Solubility >2% w/w ([2]; Table 1, solvent system Ethanol/MEK): ✓ | Solubility >2% w/w ([2]; Table 2, EtOH/Acetic Acid (99.5:0.5)): ✓ | Solubility >2% w/w ([2]; Table 2, EtOH/Water (90:10)): ✓ | Solubility >2% w/w ([2]; Table 2, EtOH/Water (98:2)): ✓ | Solubility >2% w/w ([2]; Table 2, EtOH/Water/Acetic Acid (89.5:10:0.5)): ✓ | Solubility >2% w/w ([2]; Table 2, EtOH/Water/Acetic Acid (99.4:0.5:0.1)): ✓ | Storage stability ([3]; EtOH/Water (90:10)): ✓ | Storage stability ([3]; EtOH/Water/Acetic Acid (89.5:10:0.5)): ✓ | solubility and stability ([3]; ethanol, water, acetic acid (89.5:10:0.5) solvent system): exhibited both solubility and stability | solubility and stability ([3]; ethanol/water (90:10) solvent system): exhibited both solubility and stability | change in impurity concentration ([4]; coated article after radiation sterilization (gamma irradiation, electron beam)): No change or minimal increase; also recorded: minimal increase | degradation ([4]; coated article subjected to ethylene oxide sterilization): degrades appreciably | Compound of Formula (I) (HPLC area-%) [4, 7]: 98.22 HPLC area-% and 98.33 HPLC area-% and 98.37 HPLC area-% | Total impurities (HPLC area-%) [4, 7]: 1.78 HPLC area-% and 1.67 HPLC area-% and 1.63 HPLC area-% | Compound of Formula (I) (HPLC area-%) [4, 8]: 94.75 HPLC area-% and 94.26 HPLC area-% and 94.35 HPLC area-% | Total impurities (HPLC area-%) [4, 8]: 5.25 HPLC area-% and 5.74 HPLC area-% and 5.65 HPLC area-% | Compound of Formula (I) (HPLC area-%) [4, 9]: 98.32 HPLC area-% and 98.37 HPLC area-% and 98.28 HPLC area-% | Total impurities (HPLC area-%) [4, 9]: 1.68 HPLC area-% and 1.63 HPLC area-% and 1.72 HPLC area-% | Compound of Formula (I) (HPLC area-%) [4, 10]: 98.33 HPLC area-% and 98.32 HPLC area-% | Total impurities (HPLC area-%) [4, 10]: 1.67 HPLC area-% and 1.68 HPLC area-% | increase in impurity concentration [5]: minimal | degradation ([6]; coated article stored at room temperature): degrades appreciably | degradation rate over time at room temperature ([6]; coating further comprising at least one antioxidant): reduced | amount of main impurity by LC / formation of impurities over time ([6]; coating with BHT vs coating of only Compound of Formula (I)): lower amounts; also recorded: reduction | amount of main impurity by LC / formation of impurities over time ([6]; coating with tromethamine vs coating of only Compound of Formula (I)): lower amounts; also recorded: reduction
